Tests used:
[1] = Safety and tolerability, multiple-dose cohorts; assay type: in vivo, human
Experimental: Safety assessments included monitoring of clinical laboratory tests, cardiovascular safety monitoring (continuous Holter monitoring, ECG, telemetry), and physical examinations conducted at scheduled times throughout the study in the research units as well as post-discharge (up to 9 days after the single-dose, or up to 11 days after the last dose for multiple-dose cohorts). Adverse events and concomitant medications were recorded. Laboratory samples for clinical chemistry, hematology, coagulation tests, and urinalysis were collected under fasted conditions. Participants who discontinued prematurely attended an early termination visit. In the multiple-dose cohorts, baseline serum TSH, ACTH, and prolactin samples were collected on Day -2, and an oral glucose tolerance test (OGTT) was conducted on Day -7 or earlier. These assessments were repeated on Day 8 (M1) or Day 11 (M2 and subsequent cohorts). A safety review committee oversaw the study and made decisions to escalate, expand or decrease the dose for the cohorts based on a review of demographics, pharmacokinetics, pharmacodynamics, and safety data in a blinded fashion. For the safety analysis, adverse events were coded using the Medical Dictionary for Regulatory Activities (MedDRA® Version 20.0). Adverse events were grouped by preferred terms. Treatment-emergent adverse events (TEAEs) were summarized with descriptive statistics.

[2] = parameters: method as in ref 14 = [14]; 14. Madan A, Juo R, Ferrara-Cook C, Struthers RS, van Marle S, Krasner A (2020) Absorption, metabolism, excretion and absolute oral bioavailability [ 14 C]-CRN00808, an orally bioavailable, nonpeptide; conditions: cited from earlier work
[3] = Relative bioavailability of capsule versus solution and food effect (10 mg); assay type: in vivo, human; conditions: for Tmax: human, plasma, oral
Experimental: Screening occurred within 28 days prior to the first administered dose (Day 1) in both single-dose and multiple-dose cohorts. Participants were confined to a clinical research unit from Day -2 until the day after the last dose. Dosing of paltusotine or placebo commenced on Day 1 after baseline studies. Participants fasted overnight for ≥ 10 h prior to each dose administration and remained fasting until 4 h post-dose (after collection of the last GH sample after growth hormone-releasing hormone [GHRH] challenge). For the food effect cohort, the study drug was administered 30 min after a high-fat and high-calorie breakfast. Crinetics Pharmaceuticals, Inc (San Diego, CA) provided the active ingredient, paltusotine (3-[4-(4-Aminopiperidin-1-yl)-3-(3,5-difluorophenyl)quinolin-6-yl]-2-hydroxybenzonitrile hydrochloride; CRN00808), for administration as either an oral solution (prepared on site at the Phase 1 unit) or as capsules (placebo, 5 mg, and 20 mg).
In the single-dose phase, participants were randomized 6:2 to paltusotine (1.25, 2.5, 5, 10, 20, 40, and 60 mg) or placebo in 7 cohorts (S1 to S7). Cohorts comparing oral bioavailability of solution versus capsules and the effect of a standardized high-fat, high-calorie breakfast on oral bioavailability of the capsule formulation employed the 10 mg dose level. In the multiple-dose phase, participants were randomized 6:3 to once-daily oral paltusotine capsules or placebo at doses of 5 mg for 7 days (M1, Day Last = Day 7), and 10, 20, and 30 mg daily for 10 days (M2, M3, M4, Day Last = Day 10). The initial starting dose of 1.25 mg in the single-dose phase was selected for this study based on nonclinical pharmacologic activity, pharmacokinetics, and safety studies. Subsequent doses were either specified in the protocol or were selected by the safety review committee responsible for the safety oversight of the study.
For assessing pharmacokinetics of paltusotine, the single-dose pharmacokinetic population included all randomized participants who received any amount of study drug with sufficient plasma concentration data. For the multiple-dose cohorts, only participants who received all doses were included. The relative bioavailability of the capsule formulation was determined by comparing its pharmacokinetic parameters with those of the solution formulation at the 10 mg dose. Food effect was determined at the same dose by comparing pharmacokinetic parameters in the fasting state to those when paltusotine was administered with a high-fat, high-calorie meal. For both formulation and food effect, ANOVA with treatment as a fixed effect and subject as a random effect was performed. Data for peak concentration (Cmax), AUC0-last, and AUC0-inf were natural log-transformed.

[4] = multiple-dosing, safety population N = 24
[5] = multiple-dosing, safety population N = 24, listed as Paltusotine
[6] = one subject, cohort M3 20 mg, discontinued after Day 5

Cl.N#Cc1cccc(-c2ccc3ncc(-c4cc(F)cc(F)c4)c(N4CCC(N)CC4)c3c2)c1O [paltusotine, 3-[4-(4-Aminopiperidin-1-yl)-3-(3,5-difluorophenyl)quinolin-6-yl]-2-hydroxybenzonitrile hydrochloride]
increase in glucose AUC0-3 upon 75 g oral glucose challenge compared to baseline ([1]; 30 mg multiple dose, 95% CI 1.8-4.6, placebo 1.5): 3.2 mmol·h/L
heart rate, ECG morphology, PR duration, QRS interval, QTcF interval ([1]; all cohorts): no clinically meaningful changes
fasting plasma glucose ([1]; multiple-dose cohorts): not significantly changed
share of TEAEs occurring at a dose level of 10 mg or higher ([1]; multiple-dose cohorts): 78%
Abdominal pain (TEAE) [1, 4]: 4 n (%)
Diarrhea (TEAE) [1, 4]: 4 n (%)
Headache (TEAE) [1, 4]: 3 n (%)
Hyperglycemia (TEAE) [1, 4]: 2 (8.3%) n (%)
Lipase/pancreatic enzymes increased (TEAE) [1, 4]: 2 (8.3%) n (%)
Participants with at least 1 TEAE [1, 4]: 17 (70.8%) n (%)
Upper respiratory tract infection (TEAE) [1, 4]: 2 (8.3%) n (%)
Ventricular tachycardia (non-sustained) (TEAE) [1, 4]: 2 (8.3%) n (%)
Abdominal pain (TEAE) [1, 5]: 4 (16.7%) n (%)
Diarrhea (TEAE) [1, 5]: 4 (16.7%) n (%)
Headache (TEAE) [1, 5]: 3 (12.5%) n (%)
amylase peak [1, 6]: 2 times the upper limit of normal
lipase peak [1, 6]: 3.9 times the upper limit of normal
lipase elevation ([1]; one subject, cohort M4 30 mg, 24 h after the tenth dose): 1.7 times the upper limit of normal
TSH, ACTH, or prolactin levels ([1]; repeated administration): no consistent trends of clinical relevance
tolerability ([1]; repeated daily capsules, 7 days (5 mg) and 10 days (10, 20, 30 mg)): well tolerated
oral bioavailability in animals [2]: high oral bioavailability
AUC0-inf geometric mean ratio, high-fat high-calorie meal relative to fasted ([3]; 10 mg capsules): 17%
Cmax geometric mean ratio, high-fat high-calorie meal relative to fasted ([3]; 10 mg capsules): 14%
AUC0-inf geometric mean ratio, capsule relative to oral solution ([3]; 10 mg, fasted): 69%
Cmax geometric mean ratio, capsule relative to oral solution ([3]; 10 mg, fasted): 83%
decrease in Cmax and AUC0-24 with food ([3]; high-fat, high-calorie meal before 10 mg capsule): more than 7 fold
Tmax ([3]; 10 mg, 10 mg capsules with high-fat, high-calorie meal): 3 h
Tmax ([3]; 10 mg, 10 mg capsules, fasted): 2.1 h

Source: publication PMC8894159, “Paltusotine, a novel oral once-daily nonpeptide SST2 receptor agonist, suppresses GH and IGF-1 in healthy volunteers” (Pituitary, 2022)
